The subject of one assay is serum LH. The following applies: two stimulations with 25 mcg each on 3 consecutive days, 12 normally menstruating females; cited from earlier work.
The test system of another assay is plasma LH and FSH. Particulars: intermittent, but not continuous, administration; cited from earlier work.
A further assay concerns plasma testosterone. The assay can be described thus: Phase 1 study of oral leuprolide acetate for 28 days, hormonal response (plasma testosterone). The following applies: for Testosterone levels: healthy males. The class given is in vivo, human. From the text:
Twenty subjects were assigned to each dosing group.

As for “gonadotropin releasing hormone (QHWSYGLRPG; Gonadoliberin-1; UniProt P01148 24-33, looked up) [GnRH, hormone that is secreted by the hypothalamus in a pulsating fashion, also known as LH-RH]”, the “Serum LH levels” value in the assay with serum LH is given as “Increases in serum LH levels”. For the same compound, the “Plasma LH and FSH levels” value in the assay with plasma LH and FSH was “increases in plasma LH and FSH levels”.
`CCNC(=O)[C@@H]1CCCN1C(=O)[C@H](CCCNC(=N)N)NC(=O)[C@H](CC(C)C)NC(=O)[C@@H](CC(C)C)NC(=O)[C@H](Cc1ccc(O)cc1)NC(=O)[C@H](CO)NC(=O)[C@H](Cc1c[nH]c2ccccc12)NC(=O)[C@H](Cc1c[nH]cn1)NC(=O)[C@@H]1CCC(=O)N1` [leuprolide acetate]: the “Testosterone levels relative to baseline” value in the assay on plasma testosterone (Group A, 5 mg q.d. oral) is listed as “failed to raise the levels of testosterone above the baseline”; in the assay on plasma testosterone (Group B, 5 mg b.i.d. oral) it was “higher than the baseline until Day 7”; in the assay on plasma testosterone (Group C, 10 mg q.d. oral), “higher than the baseline until Day 6”. Also, the Testosterone levels was 452.45 ng/dL in the assay with plasma testosterone (Group A, 5 mg q.d. oral, Day 2, baseline 453.25); 406.25 ng/dL with plasma testosterone (Group A, 5 mg q.d. oral, Day 3, baseline 453.25); 384.70 ng/dL in the assay with plasma testosterone (Group A, 5 mg q.d. oral, Day 4, baseline 453.25); 430.55 ng/dL in the assay with plasma testosterone (Group A, 5 mg q.d. oral, Day 5, baseline 453.25); 434.55 ng/dL in the assay on plasma testosterone (Group A, 5 mg q.d. oral, Day 6, baseline 453.25); 413.75 ng/dL in the assay on plasma testosterone (Group A, 5 mg q.d. oral, Day 7, baseline 453.25). Moreover, the Testosterone levels is recorded as 405.85 ng/dL in the assay on plasma testosterone (Group A, 5 mg q.d. oral, Day 8, baseline 453.25); 358.8 ng/dL with plasma testosterone (Group A, 5 mg q.d. oral, Day 9, baseline 453.25); 369.80 ng/dL in the assay with plasma testosterone (Group A, 5 mg q.d. oral, Day 10, baseline 453.25); 563.5 ng/dL in the assay with plasma testosterone (Group B, 5 mg b.i.d. oral, Day 2, baseline 485.00); 541.35 ng/dL in the assay on plasma testosterone (Group B, 5 mg b.i.d. oral, Day 3, baseline 485.00); 527.40 ng/dL with plasma testosterone (Group B, 5 mg b.i.d. oral, Day 4, baseline 485.00). Moreover, the Testosterone levels with plasma testosterone (Group B, 5 mg b.i.d. oral, Day 5, baseline 485.00) is given as 502.85 ng/dL; in the assay on plasma testosterone (Group B, 5 mg b.i.d. oral, Day 6, baseline 485.00) it was 493.25 ng/dL; in the assay with plasma testosterone (Group B, 5 mg b.i.d. oral, Day 7, baseline 485.00) it was 484.75 ng/dL; in the assay on plasma testosterone (Group B, 5 mg b.i.d. oral, Day 8, baseline 485.00), 449.10 ng/dL; in the assay on plasma testosterone (Group B, 5 mg b.i.d. oral, Day 9, baseline 485.00) it was 427.65 ng/dL; in the assay on plasma testosterone (Group B, 5 mg b.i.d. oral, Day 10, baseline 485.00), 428.95 ng/dL. In addition, the Testosterone levels in the assay on plasma testosterone (Group C, 10 mg q.d. oral, Day 2, baseline 458.85) turned out to be 495.85 ng/dL; in the assay on plasma testosterone (Group C, 10 mg q.d. oral, Day 3, baseline 458.85) it was 501.00 ng/dL; in the assay on plasma testosterone (Group C, 10 mg q.d. oral, Day 4, baseline 458.85), 492.20 ng/dL; in the assay with plasma testosterone (Group C, 10 mg q.d. oral, Day 5, baseline 458.85) it was 463.90 ng/dL; with plasma testosterone (Group C, 10 mg q.d. oral, Day 6, baseline 458.85), 412.65 ng/dL; in the assay with plasma testosterone (Group C, 10 mg q.d. oral, Day 7, baseline 458.85) it was 435.50 ng/dL. Further, the Testosterone levels is on record as 409.00 ng/dL in the assay with plasma testosterone (Group C, 10 mg q.d. oral, Day 8, baseline 458.85); 428.05 ng/dL with plasma testosterone (Group C, 10 mg q.d. oral, Day 9, baseline 458.85); 405.95 ng/dL with plasma testosterone (Group C, 10 mg q.d. oral, Day 10, baseline 458.85). The “Elevation of plasma testosterone, comparison of dose groups” value in the assay on plasma testosterone (Group B, 5 mg b.i.d., compared with Group C, 10 mg q.d.) is on record as “more significant elevation of plasma testosterone”.

The values above are taken from patent publication US20040002445A1, “Enhancement of endogenous gonadotropin production” (priority 2002, published 2004).
